Measurements from the NIST ThermoML archive (doi:10.1021/je101232g).
± gives the expanded uncertainty stated by the source.

Details: Liquid

CCCCCCCCCCCCCC[P+](CCCCCC)(CCCCCC)CCCCCC.O=S(=O)([N-]S(=O)(=O)C(F)(F)F)C(F)(F)F
mass density [kg/m3]
Details	283.15 K	293.15 K	303.15 K	313.15 K	323.15 K	333.15 K
100 kPa	1077.4 ± 0.8	1070 ± 0.7	1062.7 ± 0.7	1055.4 ± 0.7	1048 ± 0.7	1040.8 ± 0.6
1000 kPa	1077.9 ± 0.8	1070.5 ± 0.8	1063.3 ± 0.7	1056 ± 0.7	1048.7 ± 0.7	1041.5 ± 0.7
2000 kPa	1078.4 ± 0.8	1071.2 ± 0.8	1063.9 ± 0.8	1056.7 ± 0.7	1049.3 ± 0.7	1042.2 ± 0.7
3000 kPa	1079 ± 0.8	1071.8 ± 0.8	1064.5 ± 0.8	1057.3 ± 0.8	1050.1 ± 0.7	1042.9 ± 0.7
4000 kPa	1079.6 ± 0.9	1072.3 ± 0.8	1065.2 ± 0.8	1057.9 ± 0.8	1050.7 ± 0.7	1043.6 ± 0.7
5000 kPa	1080.2 ± 0.9	1072.9 ± 0.9	1065.8 ± 0.8	1058.6 ± 0.8	1051.4 ± 0.8	1044.4 ± 0.7
10000 kPa	1083 ± 1	1075.9 ± 1	1068.8 ± 0.9	1061.7 ± 0.9	1054.7 ± 0.9	1047.8 ± 0.8
15000 kPa	1085.6 ± 1.2	1078.6 ± 1.1	1071.8 ± 1.1	1064.9 ± 1	1057.9 ± 1	1051.2 ± 0.9
20000 kPa	1088.3 ± 1.3	1081.4 ± 1.3	1074.7 ± 1.2	1067.8 ± 1.1	1061 ± 1.1	1054.3 ± 1
25000 kPa	1090.8 ± 1.5	1084 ± 1.4	1077.4 ± 1.4	1070.7 ± 1.3	1064 ± 1.2	1057.4 ± 1.1
30000 kPa	1093.3 ± 1.7	1086.6 ± 1.6	1080.1 ± 1.5	1073.5 ± 1.4	1066.9 ± 1.3	1060.4 ± 1.3
35000 kPa	1095.6 ± 1.8	1089.1 ± 1.7	1082.7 ± 1.7	1076.2 ± 1.6	1069.8 ± 1.5	1063.3 ± 1.4
40000 kPa	1097.9 ± 2	1091.5 ± 1.9	1085.1 ± 1.8	1078.8 ± 1.7	1072.4 ± 1.6	1066.2 ± 1.5
45000 kPa	1100.2 ± 2.2	1093.9 ± 2.1	1087.7 ± 2	1081.3 ± 1.9	1075.1 ± 1.8	1068.9 ± 1.7

CCCCCCCCCCCCCC[P+](CCCCCC)(CCCCCC)CCCCCC.CS(=O)(=O)[O-] [trihexyltetradecylphosphonium methanesulfonate]
mass density [kg/m3]
Details	283.15 K	293.15 K	303.15 K	313.15 K	323.15 K	333.15 K
100 kPa	938 ± 0.7	931.8 ± 0.7	925.7 ± 0.7	919.6 ± 0.7	913.4 ± 0.7	907.4 ± 0.7
1000 kPa	938.4 ± 0.7	932.3 ± 0.7	926.2 ± 0.7	920.1 ± 0.7	914 ± 0.7	908.1 ± 0.8
2000 kPa	938.9 ± 0.7	932.8 ± 0.7	926.7 ± 0.7	920.7 ± 0.7	914.6 ± 0.8	908.7 ± 0.8
3000 kPa	939.5 ± 0.7	933.4 ± 0.7	927.3 ± 0.7	921.3 ± 0.8	915.3 ± 0.8	909.3 ± 0.8
4000 kPa	940.1 ± 0.7	933.9 ± 0.7	927.9 ± 0.8	921.9 ± 0.8	915.9 ± 0.8	910 ± 0.8
5000 kPa	940.5 ± 0.7	934.4 ± 0.8	928.4 ± 0.8	922.5 ± 0.8	916.6 ± 0.8	910.6 ± 0.9
10000 kPa	943.1 ± 0.8	937.1 ± 0.8	931.3 ± 0.9	925.3 ± 0.9	919.5 ± 0.9	913.7 ± 1
15000 kPa	945.6 ± 0.9	939.7 ± 0.9	934 ± 1	928.1 ± 1	922.3 ± 1	916.7 ± 1.1
20000 kPa	948 ± 0.9	942.2 ± 1	936.6 ± 1	930.8 ± 1.1	925.2 ± 1.1	919.6 ± 1.2
25000 kPa	950.3 ± 1	944.6 ± 1.1	939 ± 1.1	933.5 ± 1.2	927.9 ± 1.2	922.3 ± 1.3
30000 kPa	952.7 ± 1	947.1 ± 1.1	941.5 ± 1.2	935.9 ± 1.2	930.5 ± 1.3	925 ± 1.4
35000 kPa	954.9 ± 1.1	949.4 ± 1.2	943.8 ± 1.2	938.4 ± 1.3	933.1 ± 1.4	927.7 ± 1.4
40000 kPa	957.1 ± 1.1	951.6 ± 1.2	946.2 ± 1.3	940.8 ± 1.4	935.5 ± 1.4	930.2 ± 1.5
45000 kPa	959.3 ± 1.1	953.9 ± 1.2	948.5 ± 1.3	943.3 ± 1.4	938.1 ± 1.5	932.7 ± 1.6

CCCCCCCCCCCCCC[P+](CCCCCC)(CCCCCC)CCCCCC.[Cl-] [trihexyl(tetradecyl)phosphonium chloride]
mass density [kg/m3]
Details	283.15 K	293.15 K	303.15 K	313.15 K	323.15 K	333.15 K
100 kPa	898.4 ± 0.8	892.4 ± 0.8	886.5 ± 0.8	880.6 ± 0.8	874.8 ± 0.8	868.9 ± 0.8
1000 kPa	898.8 ± 0.8	892.9 ± 0.8	887 ± 0.8	881.1 ± 0.8	875.3 ± 0.8	869.4 ± 0.9
2000 kPa	899.3 ± 0.8	893.4 ± 0.8	887.5 ± 0.8	881.7 ± 0.9	875.8 ± 0.9	870 ± 0.9
3000 kPa	899.8 ± 0.8	893.9 ± 0.9	888 ± 0.9	882.2 ± 0.9	876.4 ± 0.9	870.6 ± 0.9
4000 kPa	900.3 ± 0.9	894.4 ± 0.9	888.5 ± 0.9	882.7 ± 0.9	876.9 ± 1	871.1 ± 1
5000 kPa	900.7 ± 0.9	894.9 ± 0.9	889.1 ± 0.9	883.3 ± 1	877.6 ± 1	871.8 ± 1
10000 kPa	903.1 ± 1	897.3 ± 1.1	891.5 ± 1.1	885.9 ± 1.1	880.2 ± 1.2	874.5 ± 1.2
15000 kPa	905.3 ± 1.2	899.6 ± 1.2	894 ± 1.2	888.4 ± 1.3	882.8 ± 1.3	877.3 ± 1.4
20000 kPa	907.5 ± 1.3	901.8 ± 1.3	896.3 ± 1.4	890.8 ± 1.4	885.3 ± 1.5	879.9 ± 1.5
25000 kPa	909.6 ± 1.4	904 ± 1.5	898.6 ± 1.5	893.2 ± 1.6	887.8 ± 1.6	882.5 ± 1.7
30000 kPa	911.7 ± 1.5	906.3 ± 1.6	900.8 ± 1.6	895.5 ± 1.7	890.1 ± 1.8	884.9 ± 1.8
35000 kPa	913.7 ± 1.6	908.3 ± 1.7	903 ± 1.8	897.7 ± 1.8	892.6 ± 1.9	887.3 ± 2
40000 kPa	915.7 ± 1.7	910.3 ± 1.8	905.1 ± 1.9	899.9 ± 1.9	894.8 ± 2	889.6 ± 2.1
45000 kPa	917.6 ± 1.8	912.4 ± 1.9	907.2 ± 2	902.1 ± 2.1	897 ± 2.1	892 ± 2.2

CCCCCCCCCCCCCC[P+](CCCCCC)(CCCCCC)CCCCCC.[Br-] [tetradecyltrihexylphosphonium bromide]
mass density [kg/m3]
Details	283.15 K	293.15 K	303.15 K	313.15 K	323.15 K	333.15 K
100 kPa	962.7 ± 0.6	956.5 ± 0.6	950.3 ± 0.6	944.1 ± 0.6	937.8 ± 0.7	931.7 ± 0.7
1000 kPa	963.2 ± 0.6	957.1 ± 0.6	950.9 ± 0.6	944.6 ± 0.7	938.4 ± 0.7	932.3 ± 0.7
2000 kPa	963.7 ± 0.6	957.6 ± 0.6	951.4 ± 0.6	945.3 ± 0.7	939 ± 0.7	933 ± 0.7
3000 kPa	964.2 ± 0.6	958.1 ± 0.6	952 ± 0.7	945.8 ± 0.7	939.7 ± 0.7	933.6 ± 0.7
4000 kPa	964.8 ± 0.6	958.7 ± 0.7	952.6 ± 0.7	946.4 ± 0.7	940.3 ± 0.7	934.2 ± 0.7
5000 kPa	965.3 ± 0.6	959.2 ± 0.7	953.1 ± 0.7	947 ± 0.7	941 ± 0.7	934.9 ± 0.8
10000 kPa	967.9 ± 0.7	961.9 ± 0.7	955.9 ± 0.7	949.8 ± 0.8	943.9 ± 0.8	938 ± 0.8
15000 kPa	970.3 ± 0.7	964.5 ± 0.7	958.6 ± 0.8	952.7 ± 0.8	946.8 ± 0.9	941 ± 0.9
20000 kPa	972.8 ± 0.7	967 ± 0.8	961.2 ± 0.8	955.4 ± 0.9	949.7 ± 0.9	943.9 ± 1
25000 kPa	975.3 ± 0.7	969.3 ± 0.8	963.8 ± 0.9	958 ± 0.9	952.4 ± 1	946.8 ± 1
30000 kPa	977.6 ± 0.8	971.8 ± 0.8	966.3 ± 0.9	960.6 ± 1	955.1 ± 1	949.6 ± 1.1
35000 kPa	979.8 ± 0.8	974.2 ± 0.8	968.7 ± 0.9	963.2 ± 1	957.7 ± 1	952.3 ± 1.1
40000 kPa	982 ± 0.8	976.5 ± 0.8	971 ± 0.9	965.5 ± 1	960.2 ± 1.1	954.9 ± 1.2
45000 kPa	984.2 ± 0.8	978.8 ± 0.8	973.4 ± 0.9	967.9 ± 1	962.7 ± 1.1	957.3 ± 1.2
